Where a SMILES comes first, the peptide text is derived from it. Bridges are numbered along the chain shown (N, C = ends). [ ]: non-standard residue; d: D form. The star is where a group is joined. Decanoyl(3,6,9-trioxa) = COCCOCCOCC(=O)*; S5 = C=CCCC[C@](C)(N)C(=O)O; Nle = CCCC[C@H](N)C(=O)O
How the values were obtained:
[1] = Plasma compatibility; format: physicochemical
Procedure: The plasma compatibility of exemplary peptidomimetic macrocycles was also determined. Peptidomimetic macrocycles with a plasma compatability value (PC) that is greater than 0.1 were determined as being plasma compatible.

[2] = Plasma PK/PD study in rats; format: in vivo, rat; conditions: male Sprague-Dawley rats
Procedure: Five peptidomimetic macrocycles of the invention, as well as sermorelin, were studied to determine pharmacokinetic and pharmacodynamic parameters in rats. Male Sprague-Dawley rats (300 g, non-fasted, cannulated) were used. The study had three arms: IV administration, SC administration, and SC administration (vehicle control). For experiments using sermorelin, a dose level of 3 mg/kg IV/SC bolus was used (dose volume of […] dose and dose concentration of 1 mg/mL). The vehicle used was: 10 wt % N, N-Dimethylacetamide, 10 wt % DMSO, 2 wt % Solutol HS 15 in water for injection containing 45 mg/mL (4.5 wt %) Mannitol and 25 mM (0.38 wt %) Histidine (pH 7.5; 320 mOsm/kg). The peptide was first dissolved at high concentration in DMA and DMSO before a second dilution in Solutol vehicle.
For experiments using peptidomimetic macrocycles, 0.1 mL of DMA and 0.1 mL of DMSO were used to combine with each mg of macrocycle (˜4.3-4.5 mg of macrocycle used in each experiment). Sonication was used to ensure complete solubilization. 0.8 mL of Solutol vehicle was used for each mg of macrocycle in DMA/DMSO. The solutions were mixed gently with pipet or light vortexing. Fresh vials were used for each day of dosing, and macrocycles were stored solid at −20° C. prior to formulation.
For each study arm, 2 rats were bled (350 μL) at specific time points (5 min, 15 min, 30 min, 1 h, 2 h, 4 h, 8 h, 24 h, and 48 h) and a 150 μL bleed was performed just before dosing. Plasma was prepared into K2EDTA tubes by centrifuging for 20 minutes at 4° C. at 2000G maximum 30 minutes after collection. From each 350 μL bleed, 120 μL were transferred to one tube for PK studies and 50 μL to another tube for PD studies and frozen immediately. From the 150 μL bleed, 70 μL were transferred to one tube for PD studies and frozen immediately.

Structure (SMILES) | Plasma Compatability [1] [mg/mL] | AUC Ext (%) [2] [%] | MRT ([2]; rat, 3 mg/kg) [h] | clearance ([2]; rat, 3 mg/kg, read-out: Clp (converted)) [mL/min/kg] | Vd ([2]; rat, 3 mg/kg, read-out: Vdss) [L/kg] | half-life ([2]; rat, 3 mg/kg, read-out: t ½ (converted)) [h] | AUC(0-inf) ([2]; rat, 3 mg/kg, route not given) [ng·h/mL]
CCCC[C@H](NC(=O)[C@@H](NC(=O)[C@H](CC(=O)O)NC(=O)[C@H](CCC(N)=O)NC(=O)[C@H](CC(C)C)NC(=O)[C@H](C)NC(=O)[C@H](CCCCN)NC(=O)[C@H](CCCNC(=N)N)NC(=O)[C@H](C)NC(=O)[C@H](CO)NC(=O)[C@]1(C)CCCC=CCCC[C@](C)(NC(=O)[C@H](CCCCN)NC(=O)[C@H](CCCNC(=N)N)NC(=O)[C@H](Cc2ccc(O)cc2)NC(=O)[C@H](CO)NC(=O)[C@H](C)NC(=O)[C@@H](NC(=O)[C@H](Cc2ccccc2)NC(=O)[C@@H](NC(=O)[C@H](C)NC(=O)[C@H](CC(=O)O)NC(=O)[C@@H](C)NC(=O)[C@H](Cc2ccc(O)cc2)NC(=O)COCCOCCOC)[C@@H](C)CC)[C@@H](C)O)C(=O)N[C@@H](CC(C)C)C(=O)N[C@@H](C)C(=O)N[C@@H](CCC(N)=O)C(=O)N1)[C@@H](C)CC)C(=O)N[C@@H](CO)C(=O)N[C@@H](CCCNC(=N)N)C(N)=O [SP-135] ({Decanoyl(3,6,9-trioxa)}-Y[dA]DAIFTASYRK[S5]LAQ[S5]SARKALQDI[Nle]SR-NH2; staple 13-17; N-terminus and C-terminus assumed) | 1.6 |  |  |  |  |  | 
CC/C=C/CC(=O)N[C@@H](Cc1ccc(O)cc1)C(=O)N[C@@H](C)C(=O)N[C@@H](CC(=O)O)C(=O)N[C@@H](C)C(=O)N[C@H](C(=O)N[C@@H](Cc1ccccc1)C(=O)N[C@H](C(=O)N[C@@H](CC(N)=O)C(=O)N[C@@H](CO)C(=O)N[C@@H](Cc1ccc(O)cc1)C(=O)N[C@@H](CCCNC(=N)N)C(=O)N[C@@H](CCCCN)C(=O)N[C@H](C(=O)N[C@@H](CC(C)C)C(=O)NCC(=O)N[C@@H](CCC(N)=O)C(=O)N[C@@H](CC(C)C)C(=O)N[C@@H](CO)C(=O)N[C@@H](C)C(=O)N[C@@H](CCCNC(=N)N)C(=O)N[C@@H](CCCCN)C(=O)N[C@@H](CC(C)C)C(=O)N[C@@H](CC(C)C)C(=O)N[C@@H](CCC(N)=O)C(=O)N[C@@H](CC(=O)O)C(=O)N[C@H](C(=O)N[C@@H](CCSC)C(=O)N[C@@H](CO)C(=O)N[C@@H](CCCNC(=N)N)C(=O)N[C@@H](CCC(N)=O)C(=O)N[C@@H](CCC(N)=O)C(=O)NCC(=O)N[C@@H](CCC(=O)O)C(=O)N[C@@H](CO)C(=O)N[C@@H](CC(N)=O)C(=O)N[C@@H](CCC(N)=O)C(=O)N[C@@H](CCC(=O)O)C(=O)N[C@@H](CCCNC(=N)N)C(=O)NCC(=O)N[C@@H](C)C(=O)N[C@@H](CCCNC(=N)N)C(=O)N[C@@H](C)C(=O)N[C@@H](CCCNC(=N)N)C(=O)N[C@@H](CC(C)C)C(N)=O)[C@@H](C)CC)C(C)C)[C@@H](C)O)[C@@H](C)CC [SP-1, reference compound] | 3.5 | 13.8 | 1.6 | 2.85 | 0.267 | 55.1 | 17500
CCCC[C@@H]1NC(=O)[C@H](C)NC(=O)[C@H](CC(C)C)NC(=O)[C@@](C)(NC(=O)[C@H](CCCCN)NC(=O)[C@H](CCCNC(=N)N)NC(=O)[C@H](Cc2ccc(O)cc2)NC(=O)[C@H](CO)NC(=O)[C@H](CCC(N)=O)NC(=O)[C@@H](NC(=O)[C@H](Cc2ccccc2)NC(=O)[C@@H](NC(=O)[C@H](C)NC(=O)[C@H](CC(=O)O)NC(=O)[C@@H](C)NC(=O)[C@@H](N)Cc2ccc(O)cc2)[C@@H](C)CC)[C@@H](C)O)CCCC=CCCC[C@@](C)(C(=O)N[C@@H](CO)C(=O)N[C@@H](C)C(=O)N[C@@H](CCCNC(=N)N)C(=O)N[C@@H](CCCCN)C(=O)N[C@@H](C)C(=O)N[C@@H](CC(C)C)C(=O)N[C@@H](CCC(N)=O)C(=O)N[C@@H](CC(=O)O)C(=O)N[C@H](C(=O)N[C@@H](CCCC)C(=O)N[C@@H](CO)C(=O)N[C@@H](CCCNC(=N)N)C(N)=O)[C@@H](C)CC)NC1=O [SP-106] (H-Y[dA]DAIFTQSYRK[S5]LA[Nle][S5]SARKALQDI[Nle]SR-NH2; staple 13-17) | 0.9 |  |  |  |  |  | 
CCCC[C@H](NC(=O)[C@@H](NC(=O)[C@H](CC(=O)O)NC(=O)[C@H](CCC(N)=O)NC(=O)[C@H](CC(C)C)NC(=O)[C@H](C)NC(=O)[C@H](CCCCN)NC(=O)[C@H](CCCNC(=N)N)NC(=O)[C@H](C)NC(=O)[C@H](CO)NC(=O)[C@]1(C)CCCC=CCCC[C@](C)(NC(=O)[C@H](CCCCN)NC(=O)[C@H](CCCNC(=N)N)NC(=O)[C@H](Cc2ccc(O)cc2)NC(=O)[C@H](CO)NC(=O)[C@H](CCC(N)=O)NC(=O)[C@@H](NC(=O)[C@H](Cc2ccccc2)NC(=O)[C@@H](NC(=O)[C@H](C)NC(=O)[C@H](CC(=O)O)NC(=O)[C@@H](C)NC(=O)[C@@H](N)Cc2ccc(O)cc2)[C@@H](C)CC)[C@@H](C)O)C(=O)N[C@@H](CC(C)C)C(=O)N[C@@H](C)C(=O)N[C@@H](CCC(N)=O)C(=O)N1)[C@@H](C)CC)C(=O)N[C@@H](CO)C(=O)N[C@@H](CCCNC(=N)N)C(N)=O (single isomer, unassigned) [SP-107] | 1.6 |  |  |  |  |  | 

Source: patent US20180371044A1, “PEPTIDOMIMETIC MACROCYCLES” (Aileron Therapeutics, Inc., priority 2015, published 2018)
